This is an account of results in publication PMC6155387, “Alkoxy and Enediyne Derivatives Containing 1,4-Benzoquinone Subunits—Synthesis and Antitumor Activity” (Molecules : A Journal of Synthetic Chemistry and Natural …, 2017).

The subject of test [1] is C-32. As to conditions: melanoma C-32, read-out: IC50 ± SD C-32, cited from earlier work.
Test [2] relates to SNB-19. The settings on record: glioblastoma SNB-19, read-out: IC50 ± SD SNB-19, cited from earlier work.
The test system of test [3] is MDA-MB-231. The settings on record: breast cancer MDA-MB-231, read-out: IC50 ± SD MDA-MB-231, cited from earlier work.
Test [4] concerns HFF-1. The settings on record: normal fibroblasts HFF-1, cited from earlier work; for IC50 ± SD HFF-1: Neg: negative in the concentration used, footnote a; for IC50: footnote b, read-out: IC50 ± SD HFF-1.
Test [5] concerns C-32. The experiment in a line: antiproliferative activity (WST-1), melanoma C-32. Format: cell-based, human. The settings on record: for SI (IC50 HFF-1/IC50 cancer line) C-32: selectivity index, HFF-1 vs C-32; for IC50: melanoma C-32, 72 h, WST-1, Neg: negative in the concentration used, read-out: IC50 ± SD C-32. How it is done: (§1) Biological activity of the tested compounds was assessed in vitro using cultured cell lines: melanoma C-32 (ATCC, Rockville, MD, USA), glioblastoma SNB-19 (DSMZ, Braunschweig, Germany), breast cancer MDA-MB-231 (ATCC, Rockville, MD, USA), and normal human fibroblasts derived from foreskin HFF-1 (ATCC, Rockville, MD, USA). Cell cultures were maintained using DMEM (Lonza, Basel, Switzerland) supplemented with 10% fetal bovine serum (FBS) (Biological Industries Cromwell, CT, USA) and a mixture of penicillin (10,000 U/mL) and streptomycin (10 mg/mL) (Lonza, Basel, Switzerland).
(§2) Cells were cultured using 96-well plates (Nunc Thermo Fisher Scientific, Waltham, MA, USA). Cells were seeded (5 × 10^3 cells/well) and incubated for 24 h in a standard incubator (37 °C, 5% CO2, relative humidity 95%). Subsequently, the medium was replaced with a fresh aliquot containing an examined compound (0.01; 0.05; 0.1; 0.5; 1; 5; 10; 50; 100 µg/mL), and cells were further incubated for another 72 h. Upon the conclusion of incubation, a CVDE test (Aniara, West Chester, OH, USA) using crystal violet was performed to assess the relative number of cells in the culture. A WST-1 test (Roche) was performed to examine the metabolic activity of cells and test for the presence of LDH in the medium (Roche Diagnostics GmbH, Mannheim, Germany), allowing for the assessment of the relative number of dead cells (i.e., cytotoxicity of the examined compound). UVM340 microplate readers (BIOGENET, Józefów, Poland) were used to read absorbance values.
(§3) WST-1 colorimetric assay for cell proliferation (Roche Diagnostics GmbH, Mannheim, Germany, reagent kit cat. 11644807001) is based on the viable cells’ ability to cleave the bright red-colored stable tetrazolium salt WST-1 to dark red soluble formazan. This bioreduction occurs under the influence of mitochondrial dehydrogenases (depends mostly on production of NAD(P)H in viable cells). The amount of formazan dye formed correlates directly with the number of metabolically active cells in the culture and is measured by absorbance (λ = 450 nm) following 1 h incubation of cells with the reagent.
A general note: Tetrazolium assays rely on reduction of a dye to a coloured formazan, in cell work by metabolically active cells.

Test [6] relates to SNB-19. The experiment in a line: antiproliferative activity (WST-1), glioblastoma SNB-19. Format: cell-based, human. As to conditions: for SI (IC50 HFF-1/IC50 cancer line) SNB-19: selectivity index, HFF-1 vs SNB-19; for IC50: glioblastoma SNB-19, 72 h, WST-1, Neg: negative in the concentration used, read-out: IC50 ± SD SNB-19. How it is done:
as §1, §2, §3

The test system of test [7] is MDA-MB-231. Kind of test: antiproliferative activity (WST-1), breast cancer MDA-MB-231. It is filed as cell-based, human. As to conditions: for SI (IC50 HFF-1/IC50 cancer line) MDA-MB-231: selectivity index, HFF-1 vs MDA-MB-231; for IC50: breast cancer MDA-MB-231, 72 h, WST-1, Neg: negative in the concentration used, read-out: IC50 ± SD MDA-MB-231. Here is the method:
as §1, §2, §3

Test [8] has as its system HFF-1. The experiment in a line: antiproliferative activity (WST-1), normal fibroblasts HFF-1. As to conditions: normal fibroblasts HFF-1, 72 h, Neg: negative in the concentration used, read-out: IC50 ± SD HFF-1. It is filed as cell-based, human. How it is done: as §1, §2, §3

Each structure is given as a SMILES string. Like-named read-outs stand apart in the source and are kept apart here.

Usually IC50 stands for the midpoint of a concentration-inhibition curve. As for `CCCOC1=C(Cl)C(=O)c2cccnc2C1=O` [Compound 7], the figures for the IC50 in test [1] (footnote a), in test [2] (footnote a) and in test [3] (footnote a) were 0.2 ± 0.1 µM, 0.4 ± 0.1 µM and 22.4 ± 2.7 µM, respectively. In addition, the “IC50 ± SD HFF-1” value in test [4] is “Neg”.
As for `C=CCOC1=C(Cl)C(=O)c2cccnc2C1=O` [Compound 8], the values for the IC50 in test [1] (footnote a), in test [2] (footnote a) and in test [3] (footnote a) were 0.28 ± 0.1 µM, 0.3 ± 0.1 µM and 17.2 ± 2.8 µM, respectively. Moreover, in test [4], the “IC50 ± SD HFF-1” value is listed as “Neg”.
Take `C#CCOC1=C(Cl)C(=O)c2cccnc2C1=O` [Compound 9]: the “SI (IC50 HFF-1/IC50 cancer line) C-32” value in test [5] stood at 10.31. Also, the “SI (IC50 HFF-1/IC50 cancer line) SNB-19” value in test [6] was 0.16. In addition, in test [7], the “SI (IC50 HFF-1/IC50 cancer line) MDA-MB-231” value stood at 0.15. For the same molecule, the IC50 in test [1] (footnote b) is 0.32 ± 0.1 µM; in test [2] (footnote b), 20.4 ± 0.2 µM; in test [3] (footnote b), 21.4 ± 3.4 µM; in test [4] it was 3.3 ± 0.3 µM.
Turning to `CCCOC1=C(OCCC)C(=O)c2ncccc2C1=O` [Compound 16], the IC50 is 1.1 ± 0.1 µM in test [1] (footnote a), 0.7 ± 0.02 µM in test [2] (footnote a) and 3 ± 0.3 µM in test [3] (footnote a). The “IC50 ± SD HFF-1” value in test [4] is given as “Neg”.
`C=CCOC1=C(OCC=C)C(=O)c2ncccc2C1=O` [Compound 17]: the IC50 is 1.5 ± 0.1 µM in test [1] (footnote a), 0.2 ± 0.1 µM in test [2] (footnote a) and 12.6 ± 2.7 µM in test [3] (footnote a). For the same molecule, the “IC50 ± SD HFF-1” value in test [4] was “Neg”.
`C#CCOC1=C(OCC#C)C(=O)c2ncccc2C1=O` [Compound 18]: the “SI (IC50 HFF-1/IC50 cancer line) C-32” value in test [5] turned out to be 50.40. Moreover, the “SI (IC50 HFF-1/IC50 cancer line) SNB-19” value in test [6] turned out to be 0.58. In test [7], the “SI (IC50 HFF-1/IC50 cancer line) MDA-MB-231” value was determined as 7.00. The IC50 is 0.3 ± 0.1 µM in test [1] (footnote b), 21.7 ± 1.1 µM in test [2] (footnote b), 1.8 ± 0.1 µM in test [3] (footnote b) and 12.6 ± 0.9 µM in test [4].
For `Cc1ccc2c(n1)C(=O)C(OCC#CC=CC#CCO)=C(Cl)C2=O` [Compound 25, 6-Chloro-7-(8-hydroxy-4-octen-2,6-diynyloxy)-2-methyl-5,8-quinolinedione], the IC50 in test [5] (Homo sapiens, C32) is 116 ± 2.9 µM; in test [6] (Homo sapiens) it was 169 ± 4.8 µM; in test [7] (Homo sapiens), 16.5 ± 1.9 µM; in test [8] (Homo sapiens) it was 27.1 ± 1.1 µM. The “SI (IC50 HFF-1/IC50 cancer line) C-32” value in test [5] is reported as 0.23. Besides, the “SI (IC50 HFF-1/IC50 cancer line) SNB-19” value in test [6] turned out to be 0.16.
With `O=C1C2=C(OCC#C/C=C\C#CCO2)C(=O)c2ccccc21` [Compound 26, 8-Octen-6,10-diynyl-1,4-dioxocyclododeca[2,3-g]-1,4-naphthoquinon], the half-maximal inhibitory concentration (IC50) was found to be 30.3 ± 3.1 µM in test [5] (Homo sapiens, C32); 22.8 ± 1.4 µM in test [6] (Homo sapiens); 2 ± 0.2 µM in test [7] (Homo sapiens); 17.5 ± 1.3 µM in test [8] (Homo sapiens). Moreover, the “SI (IC50 HFF-1/IC50 cancer line) C-32” value in test [5] came out at 0.58. Also, in test [6], the “SI (IC50 HFF-1/IC50 cancer line) SNB-19” value was 0.77.
With `O=C1C2=C(OCC#C/C=C\C#CCO2)C(=O)c2ncccc21` [Compound 27, 8-Octen-6,10-diynyl-1,4-dioxocyclododeca[2,3-g]-5,8-quinolinedione], the IC50 was 48.4 ± 8.9 µM in test [5] (Homo sapiens, C32); 31.5 ± 2.5 µM in test [6] (Homo sapiens); 25.1 ± 2.4 µM in test [7] (Homo sapiens); 13 ± 3.4 µM in test [8] (Homo sapiens). In test [5], the “SI (IC50 HFF-1/IC50 cancer line) C-32” value is reported as 0.27. Besides, the “SI (IC50 HFF-1/IC50 cancer line) SNB-19” value in test [6] amounted to 0.41.
Take `Cc1ccc2c(n1)C(=O)C1=C(OCC#C/C=C\C#CCO1)C2=O` [Compound 28, 8-Octen-6,10-diynyl-1,4-8-octen-6,10-diynyl-1,4-dioxocyclododeca[2,3-g]-2-methyl-5,8-quinolinedione]: the half-inhibitory concentration (IC50) stood at 155 ± 3.7 µM in test [5] (Homo sapiens, C32); 157 ± 5.7 µM in test [6] (Homo sapiens); 174 ± 5.9 µM in test [7] (Homo sapiens); 27.8 ± 1.2 µM in test [8] (Homo sapiens). Further, the “SI (IC50 HFF-1/IC50 cancer line) C-32” value in test [5] is 0.18. The “SI (IC50 HFF-1/IC50 cancer line) SNB-19” value in test [6] turned out to be 0.18.
Regarding `N.N.[Cl][Pt][Cl]` [cisplatin, reference compound], the IC50 in test [5] was 16.4 ± 1.2 µM; in test [6], 18.9 ± 0.4 µM; in test [7] it was 25.5 ± 0.2 µM; in test [8], 9.1 ± 1.8 µM. For the same molecule, the “SI (IC50 HFF-1/IC50 cancer line) C-32” value in test [5] is reported as 0.55. Further, the “SI (IC50 HFF-1/IC50 cancer line) SNB-19” value in test [6] stood at 0.48.
